Results reported in patent US5597899A, “Tumor necrosis factor muteins” (Hoffmann-La Roche Inc., priority 1993, dated 1997).
Changes are numbered by the printed parent chain. Names and notes keep the numbering of the source.

B1: L29S-R32W-S86T: human TNFα mutein L29S-R32W-S86T (protein)
chain: VRSSSRTPSDKPVAHVVANPQAEGQLQWSNRWANALLANGVELRDNQLVVPSEGLYLIYSQVLFKGQGCPSTHVLLTHTISRIAVTYQTKVNLLSAIKSPCQRETPEGAEAKPWYEPIYLGGVFQLEKGDRLSAEINRPDYLDFAESGQVYFGIIAL
B2: R31N-R32T-N34S: human TNFα mutein R31N-R32T-N34S (protein)
chain: B1 chain with S29L, R31N, W32T, N34S, T86S
B3: D143V-F144L-A145S: human TNFα mutein D143V-F144L-A145S (protein)
chain: B1 chain with S29L, W32R, T86S, D143V, F144L, A145S
B4: R31N-R32T-S86T: human TNFα mutein R31N-R32T-S86T (protein)
chain: B1 chain with S29L, R31N, W32T

Assays:
[1] = tested on: human TNFR-p75; assay: Solid phase radioligand competition binding assay, E. coli lysates, TNFR-p75; conditions: 10-fold serial dilutions 10^-2 to 10^-7, < = inhibition but below 50% at 1:100, << = no measurable inhibition at 1:100
Description: 10 ml suspensions of E. coli cells transformed and induced as described in Examples I and II were centrifuged at 4'000 rpm for 10 min and resuspended in 0.9 ml of lysis buffer (10 mM Tris-HCl pH 8.0, 5 mM EDTA, 2 mM PMSF, 10 mM benzamidine, 200 units/ml aprotinine and 0.1 mg/ml lysozyme). After 20 min incubation at room temperature 50 μl of 1M MgCl2, 20 μl of 5 mg/ml DNaseI, 50 μl of 5M NaCl and 50 μl of 10% NP-40 were added and the mixture was further incubated at room temperature for 15 min. 0.5 ml of the lysate clarified by centrifugation at 13'000 rpm for 5 min was subjected to ammonium sulfate precipitation (25%-70% cut). The 70% ammonium sulfat pellet was dissolved in 0.2 ml PBS and analyzed by sodium dodecyl sulfate polyacrylamide gel electrophoresis (SDS-PAGE) to confirm presence and approximate amount of the recombinant proteins.
96 well microtiter plates were coated with recombinant human […] TNFR-p75-hγ3 and TNFR-p55-hγ3 fusion proteins (extracellular portion of the receptor fused to the Fc part of human IgG3) at a concentration of 0.3 μg/ml and 0.1 μg/ml, respectively, in phosphate buffered saline (PBS, 100 μl/well, overnight at 4° C.) [Loetscher, H. et al. J. Biol. Chem. 266, 18324-18329 (1991); Lesslauer, W. et al. Eur. J. Immunol. 21, 2883-2886 (1991)]. After blocking with blocking buffer (50 mM Tris pH 7.4, 140 mM NaCl, 5 mM EDTA, 0.02% NAN3, 1% defatted milk powder) the microtiter plate was washed with PBS and incubated in blocking buffer containing 0.1% defatted milk powder with 10 ng/ml human wild-type ^125 I-TNFα and various dilutions of E. coli lysates ranging from 10^-2 to 10^-7 (10-fold serial dilutions). TNFα was labelled by the Iodogen method (Pierce Chemical Company) to a specific activity of about 10-30 μCi/μg. The volume was 100 μl/well and each lysate dilution was assayed in duplicate or triplicate. After three hours at room temperature the wells were thoroughly washed with PBS and counted in a γ-counter. The results are given in Table 2 for lysates comprising the muteins indicated therein.

[2] = tested on: human TNFR-p55; assay: Solid phase radioligand competition binding assay, E. coli lysates, TNFR-p55; conditions: for Dilution of E. coli Lysate for 50% Inhibition of 125I-TNFα Binding (ID50) TNFR-p55: 10-fold serial dilutions 10^-2 to 10^-7, < = inhibition but below 50% at 1:100, << = no measurable inhibition at 1:100; for ID50 TNFR-p55 / ID50 TNFR-p75: ratio = 1 no receptor selectivity, > 1 TNFR-p55 selectivity, < 1 TNFR-p75 selectivity
Description: After 20 min incubation at room temperature 50 μl of 1M MgCl2, 20 μl of 5 mg/ml DNaseI, 50 μl of 5M NaCl and 50 μl of 10% NP-40 were added and the mixture was further incubated at room temperature for 15 min. 0.5 ml of the lysate clarified by centrifugation at 13'000 rpm for 5 min was subjected to ammonium sulfate precipitation (25%-70% cut). The 70% ammonium sulfat pellet was dissolved in 0.2 ml PBS and analyzed by sodium dodecyl sulfate polyacrylamide gel electrophoresis (SDS-PAGE) to confirm presence and approximate amount of the recombinant proteins.
TNFα was labelled by the Iodogen method (Pierce Chemical Company) to a specific activity of about 10-30 μCi/μg. The volume was 100 μl/well and each lysate dilution was assayed in duplicate or triplicate. After three hours at room temperature the wells were thoroughly washed with PBS and counted in a γ-counter. The results are given in Table 2 for lysates comprising the muteins indicated therein.

[3] = tested on: human TNFR-p55; assay: Competitive binding of purified muteins to recombinant human TNFR-p55; conditions: for Decrease in Binding Affinity with Respect to Wildtype TNFR-p55: IC50 of mutein divided by IC50 of wildtype TNFα; for Mutein Concentration for 50% Inhibition of 125I-TNFα Binding (IC50) TNFR-p55: purified protein, 10 ng/ml 125I-TNFα, > = competition but below 50% at 100 μg/ml, >> = no measurable competition at 100 μg/ml
Description: (§1) The cells were disrupted in a French press at a pressure of 20'000 psi or by sonication in a Branson Sonifier (Model 450, 2×2minat maximal output, on ice). […] Proteins were eluted with a linear NaCl gradient (0 to 400 mM in 20 mM Tris pH 9.0) at a flow rate of 1 ml/min. 5 ml fractions were collected and analyzed for the presence of TNFα muteins by SDS-PAGE. Positive fractions were pooled, dialyzed against 20 mM 2-morpholino-ethanesulfonic acid (MES) pH 6.0 and applied to a MonoS column (HR 5/5, LKB-Pharmacia) equilibrated in 20 mM MES pH 6.0. Proteins were eluted with a linear NaCl gradient (0 to 400 mM in 20 mM MES pH 6.0) at a flow rate of 0.5 ml/min. […] After dialysis against PBS the protein concentration was determined by the BCA Protein Assay (Pierce Chemical Company) using wild-type human TNFα as a standard or by absorbance measurements at 280 nm.
(§2) TNFα was labelled by the Iodogen method (Pierce Chemical Company) to a specific activity of about 10-30 μCi/μg. The volume was 100 μl/well and each concentration was assayed in duplicate or triplicate. After three hours at room temperature the wells were thoroughly washed with PBS and counted in a γ-counter.

[4] = tested on: human TNFR-p75; assay: Competitive binding of purified muteins to recombinant human TNFR-p75; conditions: for Decrease in Binding Affinity with Respect to Wildtype TNFR-p75: IC50 of mutein divided by IC50 of wildtype TNFα; for Mutein Concentration for 50% Inhibition of 125I-TNFα Binding (IC50) TNFR-p75: purified protein, 10 ng/ml 125I-TNFα
Description: as §1, §2

Molecule	Dilution of E. coli Lysate for 50% Inhibition of 125I-TNFα Binding (ID50) TNFR-p75 [1]	Dilution of E. coli Lysate for 50% Inhibition of 125I-TNFα Binding (ID50) TNFR-p55 [2]	ID50 TNFR-p55 / ID50 TNFR-p75 [2]	Decrease in Binding Affinity with Respect to Wildtype TNFR-p55 [3]	Mutein Concentration for 50% Inhibition of 125I-TNFα Binding (IC50) TNFR-p55 [3]	Decrease in Binding Affinity with Respect to Wildtype TNFR-p75 [4] [fold]	Mutein Concentration for 50% Inhibition of 125I-TNFα Binding (IC50) TNFR-p75 [4] [µg/mL]
A145F: human TNFα mutein A145F	6,000 fold	240 fold	0.04	33 fold	500 ng/mL	1.5	0.03
A145R: human TNFα mutein A145R	3,330 fold	< 100 fold	< 0.03	2,500 fold	100,000 ng/ml	0.8	0.035
S86T: human TNFα mutein S86T	< 100 fold	10,000 fold	> 100	–	–	–	–
S99A: human TNFα mutein S99A	6,670 fold	6,670 fold	1	–	–	–	–
S99Y: human TNFα mutein S99Y	< 100 fold	< 100 fold	1	–	–	–	–
S147L: human TNFα mutein S147L	3,330 fold	2,000 fold	0.6	–	–	–	–
S147N: human TNFα mutein S147N	10,000 fold	10,000 fold	1	–	–	–	–
Y87E: human TNFα mutein Y87E	< 100 fold	< 100 fold	> 1	–	–	–	–
Y87F: human TNFα mutein Y87F	< 100 fold	200 fold	> 2	–	–	–	–
Y87G: human TNFα mutein Y87G	< 100 fold	< 100 fold	1	–	–	–	–
Y87K: human TNFα mutein Y87K	< 100 fold	< 100 fold	1	–	–	–	–
Y87L: human TNFα mutein Y87L	< 100 fold	< 100 fold	1	–	–	–	–
Y87Q: human TNFα mutein Y87Q	< 100 fold	< 100 fold	1	–	–	–	–
Y87T-E104G: human TNFα mutein Y87T-E104G	< 100 fold	< 100 fold	1	–	–	–	–
Y87T: human TNFα mutein Y87T	< 100 fold	< 100 fold	1	–	–	–	–
Y115W: human TNFα mutein Y115W	2,220 fold	2,220 fold	1	–	–	–	–
B1	< 100 fold	2,500 fold	> 25	–	–	–	–
B2	< 100 fold	< 100 fold	1	–	–	–	–
B3	< 100 fold	< 100 fold	< 1	–	–	–	–
B4	< 100 fold	500 fold	> 5	–	–	–	–
